Source: US10683318B2, “Scalable synthesis of reduced toxicity derivative of amphotericin B” (priority 2014, dated 2020)
Converted amounts (≈) assume the structure as drawn. Read-outs that look alike come from different tables or passages of the source.

Legend:
[1] = Isothermal titration calorimetry with POPC LUVs containing 10% ergosterol; format: binding; conditions: ITC; for Ergosterol binding (net exotherm vs sterol-free LUVs): result in words
Method: (§1) In an optimized isothermal titration calorimetry (ITC)-based assay, an aqueous solution of AmB was titrated with a suspension of large unilamellar vesicles (LUVs) comprised of only 1-palmitoyl-2-oleoyl-sn-glycero-3-phosphocholine (POPC), and the net exotherm was recorded. The titration was repeated using POPC LUVs containing 10% ergosterol. […] The titration was repeated using C2′epiAmB. […] The ITC assay was also conducted with cholesterol in place of ergosterol.
(§2) Experiments were performed using a NanoITC isothermal titration calorimeter (TA Instruments, Wilmington, Del.). Solutions of the compounds to be tested were prepared by diluting a 60.0 mM stock solution of the compound in DMSO to 600 μM with K buffer (5.0 mM HEPES/KHEPES, pH=7.4). The final DMSO concentration in the solution was 1% v/v. Large unilamellar vesicles comprised of only 1-palmitoyl-2-oleoyl-sn-glycero-3-phosphocholine (POPC LUVs) were prepared and phosphorus and ergosterol content was quantified as described below. The LUV solutions were diluted with buffer and DMSO to give a final phospholipid concentration of 12.0 mM in a 1% DMSO/K buffer solution. Immediately prior to use, all solutions were incubated at 37° C. for 30 minutes and degassed under vacuum at 37° C. for 10 minutes. The reference cell of the instrument (volume=0.190 mL) was filled with a solution of 1% v/v DMSO/K buffer.
Palmitoyl oleoyl phosphatidylcholine (POPC) was obtained as a 20 mg/mL solution in CHCl3 from Avanti Polar Lipids (Alabaster, Ala.) and was stored at −20° C. under an atmosphere of dry argon and used within 1 month. A 4 mg/mL solution of ergosterol in CHCl3 was prepared monthly and stored at 4° C. under an atmosphere of dry argon. Prior to preparing a lipid film, the solutions were warmed to ambient temperature to prevent condensation from contaminating the solutions. A 13×100 mm test tube was charged with 800 μL POPC and 230 μL of the ergosterol solution. For cholesterol-containing liposomes, a 13×100 mm test tube was charged with 800 μL POPC and 224 μL of the […] solution. […]

[2] = Isothermal titration calorimetry with POPC LUVs containing 10% cholesterol; format: binding; conditions: ITC
Method: as §1
as §2, with “buffer. […]” for “buffer.”

[3] = Isothermal titration calorimetry with sterol-free POPC LUVs; format: binding; conditions: ITC, no sterol (POPC LUVs), 600 μM compound, 25° C.
Method: as §1
as §2, with “buffer. […]” for “buffer.”

S. cerevisiae = experiment: Broth microdilution MIC assay, S. cerevisiae; format: cell-based; conditions: Saccharomyces cerevisiae, 30° C., 24 hours, no visible growth
Method: Liquid cultures were incubated at 30° C. on a rotary shaker and solid cultures were maintained at 30° C. in an incubator.
(§3) The protocol for the broth microdilution assay was adapted from the Clinical and Laboratory Standards Institute document M27-A2. […] 50 mL of YPD media was inoculated and incubated overnight at either 30° C. (S. cerevisiae) or 37° C. (C. albicans) in a shaker incubator. The cell suspension was then diluted with YPD to an OD600 of 0.10 (˜5×10^5 cfu/mL) as measured by a Shimadzu (Kyoto, Japan) PharmaSpec UV-1700 UV/Vis spectrophotometer. The solution was diluted 10-fold with YPD, and 195 μL aliquots of the dilute cell suspension were added to sterile Falcon (Franklin Lakes, N.J.) Microtest 96-well plates in triplicate. Compounds may be prepared as 400 μM stock solutions in DMSO and serially diluted to the following concentrations with DMSO: 1600, 1200, 800, 400, 320, 240, 200, 160, 120, 80, 40, 20, 10 and 5 μM. 5 μL aliquots of each solution were added to the 96-well plate in triplicate, with each column representing a different concentration of the test compound. […] This 40-fold dilution gave the following final concentrations: 50, 40, 30, 20, 10, 8, 6, 4, 1, 0.5, 0.25 and 0.125 μM. The plates were covered and incubated at 30° C. (S. cerevisiae) or 37° C. (C. albicans) for 24 hours prior to analysis. […]

C. albicans [4] = experiment: Broth microdilution MIC assay, C. albicans; format: cell-based; conditions: Candida albicans, 37° C., 24 hours, no visible growth
Method: C. albicans was cultured in a similar manner to S. cerevisiae except both liquid and solid cultures were incubated at 37° C.
as §3

[5] = tested on: primary human renal proximal tubule epithelial cells; experiment: WST-8 cell proliferation assay on primary RPTECs; format: cell-based; conditions: concentration causing 90% loss of cell viability of primary human RPTECs, 24 hours
Method: Primary human renal proximal tubule epithelial cells (RPTECs) were purchased from ATCC (Manassas, Va.) and immediately cultured upon receipt. Complete growth media was prepared using renal epithelial cell basal medium (ATCC, PCS-400-030), renal epithelial cell growth kit (ATCC, PCS-400-040), and penicillin-streptomycin (10 units/mL and 10 μg/mL). Complete media was stored at 4° C. in the dark and used within 28 days. Primary RPTECs were grown in CO2 incubator at 37° C. with an atmosphere of 95% air/5% CO2.
WST-8 cell proliferation assay kit (10010199) was purchased from Cayman Chemical Company (Ann Arbor, Mich.) and stored at −20° C. and used within 6 months of receipt. WST-8 reagent and electron mediator solution were thawed and mixed to prepare the WST-8 reagent solution. The solution was stored at −20° C. and used within one week.
A suspension of primary RPTECs in complete growth media was brought to a concentration of 1×10^5 cells/mL. A 96-well plate was seeded with 99 μL of the cell suspension and incubated at 37° C. with an atmosphere of 95% air/5% CO2 for 3 hours. Positive and negative controls were prepared by seeding with 100 μL of the cell suspension or 100 μL of the complete media. […] Following incubation, the 96-well plate was mixed in a shaking incubator at 200 rpm for 1 minute and absorbances were read at 450 nm using a Biotek H1 Synergy Hybrid Reader (Winooski, Vt.). […]

C. albicans [6] = experiment: Mouse model of disseminated candidiasis; format: in vivo; conditions: neutropenic mice, single i.p. 16 mg/kg 2 hours post infection, kidneys at 24 hours post infection
Method: The antifungal efficacy of C2′epiAmB was tested in a mouse model of disseminated candidiasis. In this experiment neutropenic mice were infected with C. albicans via their tail veins, and then 2 hours post infection the mice were treated with a single intraperitoneal injection of 16 mg/kg AmB or C2′epiAmB. Then at 24 hours post infection the mice were sacrificed, and the fungal burden present in their kidneys was quantified.

healthy mice = experiment: Acute toxicity, single intravenous administration to healthy mice; format: in vivo; conditions: single i.v.
Method: In a separate experiment, acute toxicity was determined by single intravenous administration of AmB or C2′epiAmB to healthy mice, followed by monitoring for lethality.

human red blood cells [7] = conditions: 2 h, pH 7.4
Method: (§4) Whole human blood (sodium heparin) was purchased from Bioreclamation LLC (Westbury, N.Y.) and stored at 4° C. and used within two days of receipt. To a 2.0 mL Eppendorf tube, 1 mL of whole human blood was added and centrifuged at 10,000 g for 2 minutes. The supernatant was removed and the erythrocyte pellet was washed with 1 mL of sterile saline and centrifuged at 10,000 g for 2 minutes. The saline wash was repeated for a total of three washes. The erythrocyte pellet was suspended in 1 mL of RBC buffer (10 mM NaH2PO4, 150 mM NaCl, 1 mM MgCl2, pH 7.4) to form the erythrocyte stock suspension.
(§5) Compounds were prepared as 1.03 min (AmB) or 12.8 min (C2′epiAmB) stock solutions in DMSO and serially diluted to the following concentrations with DMSO: 7689, 5126, 2563, 2050, 1538, 1025, 769, 513, 384, 256, 205, 154, 103, 77, 51, 26 μM. […] Positive and negative controls were prepared by adding 1 μL of DMSO to MilliQ water or RBC buffer, respectively to 0.2 mL PCR tube. To each PCR tube, 0.63 μL of the erythrocyte stock suspension was added and mixed by inversion. The samples were incubated at 37° C. for 2 hours. The samples were mixed by inversion and centrifuged at 10,000 g for 2 minutes. […] Absorbances were read at 540 nm using a Biotek H1 Synergy Hybrid Reader (Winooski, Vt.). […]
(§6) Percent hemolysis was determined according to the following equation: […]

human red blood cells [8] = experiment: Minimum hemolysis concentration (MHC) assay; conditions: concentration causing 90% hemolysis of human red blood cells, 37° C., 2 hours
Method: as §4, §5, §6

Structure (SMILES): C[C@@H]1[C@H](O)[C@@H](C)/C=C/C=C/C=C/C=C/C=C/C=C/C=C/[C@H](O[C@@H]2O[C@H](C)[C@@H](O)[C@H](N)[C@H]2O)C[C@@H]2O[C@](O)(C[C@@H](O)C[C@@H](O)[C@H](O)CC[C@@H](O)C[C@@H](O)CC(=O)O[C@H]1C)C[C@H](O)[C@H]2C(=O)O [C2′epiAmB]
- Total exotherm ([1]; POPC LUVs with 10% ergosterol, 600 μM compound, 25° C.): -15.24 ± 1.66 µcal
- Ergosterol binding (net exotherm vs sterol-free LUVs) [1]: binds to ergosterol
- Total exotherm ([2]; POPC LUVs with 10% cholesterol, 600 μM compound, 25° C.): -6.43 ± 2.80 µcal
- Cholesterol binding ([2]; result in words): not found to bind to cholesterol
- Total exotherm [3]: -6.70 ± 0.11 µcal
- MIC (S. cerevisiae): 2 µM (≈ 1.85 µg/mL)
- MIC (C. albicans [4]): 2 µM (≈ 1.85 µg/mL)
- minimum toxic concentration (MTC) [5]: no evidence of toxicity up to the limits of solubility
- Reduction of fungal burden relative to AmB (C. albicans [6]): 0.5 log units
- Reduction of fungal burden in kidneys compared with AmB (C. albicans [6]; result in words): more effective than AmB
- Lethality (healthy mice; up to 16 mg/kg): no deaths observed
- minimum hemolytic concentration (MHC) (human red blood cells [7]): > 500 µM

Structure (SMILES): C[C@@H]1[C@H](O)[C@@H](C)/C=C/C=C/C=C/C=C/C=C/C=C/C=C/[C@H](O[C@@H]2O[C@H](C)[C@@H](O)[C@H](N)[C@@H]2O)C[C@@H]2O[C@](O)(C[C@@H](O)C[C@@H](O)[C@H](O)CC[C@@H](O)C[C@@H](O)CC(=O)O[C@H]1C)C[C@H](O)[C@H]2C(=O)O [AmB, amphotericin B]
- Ergosterol binding (net exotherm vs sterol-free LUVs) [1]: significant increase in net exotherm
- minimum toxic concentration (MTC) [5]: 2.4 µM
- Lethality (healthy mice; 4 mg/kg): died within seconds
- minimum hemolytic concentration (MHC) (human red blood cells [8]): 8.5 µM
